Data reported in patent US10874743B2, “IRAK degraders and uses thereof” (Kymera Therapeutics, Inc., priority 2017, dated 2020).
“And” between values parts separate entries of the source, which are not always exact repeats. Identical values can stand only once. Like-named read-outs stand apart in the source and are kept apart here.

Assay: Pharmacokinetics in CD-1 mice (plasma concentrations, PK parameters)
Assay type: in vivo
Protocol: Pharmacokinetics for I-127, I-172 and I-210 were determined in Sprague Dawley rats or CD-1 mice by dosing intravenous (IV), subcutaneous (SC) or per oral (PO) using facility SOPs and sampling plasma at required time points. Species, formulation, route of administration and time points samples are listed below for each compound.
Compounds were extracted from plasma, injected on reverse phase HPLC, eluted with a gradient from 5% to 95% acetonitrile in water and quantified by mass spectrometry with internal standard. Data are expressed in ng compound per mL of plasma.

[1] = mouse (CD1) iv 2 mg/kg, individual Mouse 1-3, 2 mg/kg
[2] = mouse (CD1) po 30 mg/kg, individual Mouse 4-6, 30 mg/kg
[3] = mouse (CD1) sc 30 mg/kg, individual Mouse 7-9, 30 mg/kg

O=C1CCC(N2C(=O)c3cccc(NCCOCCOCCNCc4ccc(-n5cc(NC(=O)c6coc(-c7ccnc(NCC8CC8)c7)n6)c(C(F)F)n5)cc4)c3C2=O)C(=O)N1 (stereo not shown) [I-210, 2-[2-(Cyclopropylmethylamino)-4-pyridyl]-N-[3-(difluoromethyl)-1-[4-[[2-[2-[2-[[2-(2,6-dioxo-3-piperidyl)-1,3-dioxoisoindolin-4-yl]amino]ethoxy]ethoxy]ethylamino]methyl]phenyl]pyrazol-4-yl]oxazole-4-carboxamide]
Tmax (CD-1, mouse, plasma, sc, 30 mg/kg, mouse (CD1) sc 30 mg/kg, Mean, read-out: Tmax): 2.33 h
half-life (CD-1, mouse, plasma, sc, 30 mg/kg, mouse (CD1) sc 30 mg/kg, individual Mouse 7-9): 4.34 h
AUC(0-inf) (CD-1, mouse, plasma, sc, 30 mg/kg, mouse (CD1) sc 30 mg/kg, individual Mouse 7-9, read-out: AUCInf): 1000 ng·h/mL
AUC(0-t) (CD-1, mouse, plasma, sc, 30 mg/kg, mouse (CD1) sc 30 mg/kg, individual Mouse 7-9, read-out: AUClast): 980 ng·h/mL
Cmax (CD-1, mouse, plasma, sc, 30 mg/kg, mouse (CD1) sc 30 mg/kg, individual Mouse 7-9, read-out: Cmax): 107 ng/mL
MRT inf (CD-1, mouse, plasma, sc, 30 mg/kg, mouse (CD1) sc 30 mg/kg, individual Mouse 7-9, read-out: MRTInf_obs): 6.06 h
Concentration (mouse (CD1) iv 2 mg/kg, 5 min, individual Mouse 1-3, 2 mg/kg): 495 ng/mL and 692 ng/mL
Concentration (mouse (CD1) iv 2 mg/kg, 0.25 h, individual Mouse 1-3, 2 mg/kg): 382 ng/mL and 424 ng/mL
Concentration (mouse (CD1) iv 2 mg/kg, 0.5 h, individual Mouse 1-3, 2 mg/kg): 238 ng/mL and 306 ng/mL
Concentration (mouse (CD1) iv 2 mg/kg, 1 h, individual Mouse 1-3, 2 mg/kg): 164 ng/mL and 195 ng/mL
Concentration (mouse (CD1) iv 2 mg/kg, 2 h, individual Mouse 1-3, 2 mg/kg): 92.5 ng/mL and 90.7 ng/mL
Concentration (mouse (CD1) iv 2 mg/kg, 4 h, individual Mouse 1-3, 2 mg/kg): 20.2 ng/mL and 25.6 ng/mL
Concentration (mouse (CD1) iv 2 mg/kg, 8 h, individual Mouse 1-3, 2 mg/kg): 4.92 ng/mL and 4.93 ng/mL
Concentration (mouse (CD1) iv 2 mg/kg, 24 h, individual Mouse 1-3): BLOQ
AUC_%Extrap_obs (mouse (CD1) iv 2 mg/kg, Mean): 1.66%
AUClast/D (mouse (CD1) iv 2 mg/kg, Mean): 331 h·ng/mL per mg/kg
Cl_obs (mouse (CD1) iv 2 mg/kg, Mean): 49.9 mL/min/kg
Vss_obs (mouse (CD1) iv 2 mg/kg, Mean): 4.48 L/kg
AUCInf [1]: 597 ng·h/mL and 706 ng·h/mL
AUC_%Extrap_obs [1]: 1.76% (2×) and 1.47%
AUClast [1]: 586 ng·h/mL and 695 ng·h/mL
AUClast/D [1]: 351 h·ng/mL per mg/kg and 293 h·ng/mL per mg/kg and 348 h·ng/mL per mg/kg
C0 [1]: 563 ng/mL and 884 ng/mL
Cl_obs [1]: 46.7 mL/min/kg and 55.8 mL/min/kg and 47.2 mL/min/kg
MRTInf_obs [1]: 1.41 h
T1/2 [1]: 1.48 h and 1.46 h
Vss_obs [1]: 4.42 L/kg and 5.04 L/kg and 4.00 L/kg
Concentration (mouse (CD1) po 30 mg/kg, 0.25 h, individual Mouse 4-6, 30 mg/kg): 55.9 ng/mL and 23.7 ng/mL and 12.8 ng/mL
Concentration (mouse (CD1) po 30 mg/kg, 0.5 h, individual Mouse 4-6, 30 mg/kg): 120 ng/mL and 23.0 ng/mL and 22.2 ng/mL
Concentration (mouse (CD1) po 30 mg/kg, 1 h, individual Mouse 4-6, 30 mg/kg): 153 ng/mL and 16.9 ng/mL and 45.1 ng/mL
Concentration (mouse (CD1) po 30 mg/kg, 2 h, individual Mouse 4-6, 30 mg/kg): 91.1 ng/mL and 112 ng/mL
Concentration (mouse (CD1) po 30 mg/kg, 4 h, individual Mouse 4-6, 30 mg/kg): 143 ng/mL and 123 ng/mL
Concentration (mouse (CD1) po 30 mg/kg, 8 h, individual Mouse 4-6, 30 mg/kg): 34.8 ng/mL and 17.1 ng/mL and 16.4 ng/mL
Concentration (mouse (CD1) po 30 mg/kg, 24 h, individual Mouse 4-6): BLOQ
AUC_%Extrap_obs (mouse (CD1) po 30 mg/kg, Mean): 9.8%
AUClast/D (mouse (CD1) po 30 mg/kg, Mean): 22.5 h·ng/mL per mg/kg
F (mouse (CD1) po 30 mg/kg, Mean): 7.47%
AUCInf [2]: 681 ng·h/mL and 662 ng·h/mL
AUC_%Extrap_obs [2]: 14.2% and 7.97% and 7.15%
AUClast [2]: 627 ng·h/mL and 615 ng·h/mL
AUClast/D [2]: 26.2 h·ng/mL per mg/kg and 20.9 h·ng/mL per mg/kg and 20.5 h·ng/mL per mg/kg
Cmax [2]: 143 ng/mL and 123 ng/mL
F [2]: 9.09% and 6.76% and 6.57%
MRTInf_obs [2]: 4.24 h and 3.97 h
T1/2 [2]: 2.20 h and 2.00 h
Concentration (mouse (CD1) sc 30 mg/kg, 0.25 h, individual Mouse 7-9, 30 mg/kg): 93.0 ng/mL and 70.1 ng/mL
Concentration (mouse (CD1) sc 30 mg/kg, 0.5 h, individual Mouse 7-9, 30 mg/kg): 101 ng/mL and 66.6 ng/mL
Concentration (mouse (CD1) sc 30 mg/kg, 1 h, individual Mouse 7-9, 30 mg/kg): 107 ng/mL and 76.5 ng/mL
Concentration (mouse (CD1) sc 30 mg/kg, 2 h, individual Mouse 7-9, 30 mg/kg): 115 ng/mL and 81.1 ng/mL
Concentration (mouse (CD1) sc 30 mg/kg, 4 h, individual Mouse 7-9, 30 mg/kg): 91.8 ng/mL and 105 ng/mL
Concentration (mouse (CD1) sc 30 mg/kg, 8 h, individual Mouse 7-9, 30 mg/kg): 49.0 ng/mL and 42.0 ng/mL
Concentration (mouse (CD1) sc 30 mg/kg, 24 h, individual Mouse 7-9, 30 mg/kg): 2.88 ng/mL and 2.05 ng/mL
AUC_%Extrap_obs (mouse (CD1) sc 30 mg/kg, Mean): 1.60%
AUClast/D (mouse (CD1) sc 30 mg/kg, Mean): 33.9 h·ng/mL per mg/kg
F (mouse (CD1) sc 30 mg/kg, Mean): 10.3%
AUCInf [3]: 1119 ng·h/mL and 983 ng·h/mL
AUC_%Extrap_obs [3]: 2.26% and 1.48% and 1.07%
AUClast [3]: 1102 ng·h/mL and 973 ng·h/mL
AUClast/D [3]: 32.7 h·ng/mL per mg/kg and 36.7 h·ng/mL per mg/kg and 32.4 h·ng/mL per mg/kg
Cmax [3]: 115 ng/mL and 105 ng/mL
F [3]: 9.94% and 11.1% and 9.75%
MRTInf_obs [3]: 5.82 h and 5.73 h
T1/2 [3]: 3.98 h and 3.56 h
Tmax [3]: 1 h
